Experimental data: patent US20250154173A1 (Merck Sharp & Dohme LLC, priority 2023, published 2025)

Target: T1, GST-RIPK1 (recombinant GST-RIPK1 kinase domain (residues 1-327)) (Homo sapiens, UniProt Q13546)
T1 construct: recombinant GST-RIPK1 kinase domain (residues 1-327) enzyme produced from baculovirus-transfected Sf21 cells; host or cells: baculovirus-transfected Sf21 insect cells
T1 sequence (Q13546 1-327): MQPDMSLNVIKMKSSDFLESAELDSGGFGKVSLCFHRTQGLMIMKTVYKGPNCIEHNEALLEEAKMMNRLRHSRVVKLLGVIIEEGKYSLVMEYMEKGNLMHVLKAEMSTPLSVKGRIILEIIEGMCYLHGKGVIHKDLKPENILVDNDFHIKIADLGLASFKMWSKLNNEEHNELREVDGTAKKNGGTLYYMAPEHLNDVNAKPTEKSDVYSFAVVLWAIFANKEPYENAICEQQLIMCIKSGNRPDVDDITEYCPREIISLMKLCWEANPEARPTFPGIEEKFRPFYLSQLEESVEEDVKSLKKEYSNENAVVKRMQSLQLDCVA
Experiment: RIPK1-ADP-Glo Enzymatic Assay
Type: biochemical
Settings: ten-point titration, top compound concentration of 100000 nM; 25 nM GST-RIPK1, 300 μM ATP, 3 μM dephosphorylated-MBP; 30 min pre-incubation, 150 min reaction
Method in brief: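 GST-RIPK1 kinase domain (residues 1-327, Sf21-expressed), 25 nM, preincubated 30 min with compound, then reacted 150 min with 300 μM ATP and 3 μM dephosphorylated MBP in pH 7.3 Hepes buffer, 1% DMSO. ADP measured by ADP-Glo luminescence; EC50 from ten-point titration (top 100000 nM), four-parameter fit.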

O=C1N2C(CC[C@H]2c2cnccn2)OC12CC(OCc1cc3cncnc3s1)C2 (stereo partly drawn) [Example 18.20, (5′S)-5′-(pyrazin-2-yl)-3-[(thieno[2,3-d]pyrimidin-6-yl)methoxy]tetrahydro-3′H-spiro[cyclobutane-1,2′-pyrrolo[2,1-b][1,3]oxazol]-3′-one]
EC50: 0.022 µM

O=C1N2C(CC[C@H]2c2cnccn2)OC12CC(OCc1cccc3cncc(F)c13)C2 (stereo partly drawn) [Example 18.21, (5′S)-3-[(4-fluoroisoquinolin-5-yl)methoxy]-5′-(pyrazin-2-yl)tetrahydro-3′H-spiro[cyclobutane-1,2′-pyrrolo[2,1-b][1,3]oxazol]-3′-one]
EC50: 0.032 µM

O=C1N2C(CC[C@H]2c2cnccn2)OC12CC(OCc1ccc3nc(C4CC4)cn3c1)C2 (stereo partly drawn) [Example 18.22, (5′S)-3-[(2-cyclopropylimidazo[1,2-a]pyridin-6-yl)methoxy]-5′-(pyrazin-2-yl)tetrahydro-3′H-spiro[cyclobutane-1,2′-pyrrolo[2,1-b][1,3]oxazol]-3′-one]
EC50: 0.074 µM

O=C1N2[C@@H](CC[C@H]2c2cnccn2)O[C@]12C[C@@H](OCc1ccc3scnc3c1)C2 [Example 18.23, (1s,3S,5′S,7a′R)-3-[(1,3-benzothiazol-5-yl)methoxy]-5′-(pyrazin-2-yl)tetrahydro-3′H-spiro[cyclobutane-1,2′-pyrrolo [2,1-b][1,3]oxazol]-3′-one]
EC50: 0.027 µM

O=C1N2C(CC[C@H]2c2cnccn2)OC12CC(OCc1cnc(N3CCOCC3)nc1)C2 (stereo partly drawn) [Example 18.24, (5′S)-3-{[2-(morpholin-4-yl)pyrimidin-5-yl]methoxy}-5′-(pyrazin-2-yl)tetrahydro-3′H-spiro[cyclobutane-1,2′-pyrrolo[2,1-b][1,3]oxazol]-3′-one]
EC50: 0.31 µM

O=C1N2C(CC[C@H]2c2cnccn2)OC12CC(OCc1ccc(Cn3ccnc3)cc1)C2 (stereo partly drawn) [Example 18.25, (5′S)-3-({4-[(1H-imidazol-1-yl)methyl]phenyl}methoxy)-5′-(pyrazin-2-yl)tetrahydro-3′H-spiro[cyclobutane-1,2′-pyrrolo[2,1-b][1,3]oxazol]-3′-one]
EC50: 0.048 µM

O=C1N2C(CC[C@H]2c2cnccn2)OC12CC(OCc1cccc(Cn3ccnn3)c1)C2 (stereo partly drawn) [Example 18.26, (5′S)-5′-(pyrazin-2-yl)-3-({3-[(1H-1,2,3-triazol-1-yl)methyl]phenyl}methoxy) tetrahydro-3′H-spiro[cyclobutane-1,2′-pyrrolo[2,1-b][1,3]oxazol]-3′-one]
EC50: 0.034 µM

O=C1N2C(CC[C@H]2c2cnccn2)OC12CC(OCc1cncc(OCCF)c1)C2 (stereo partly drawn) [Example 18.27, (5′S)-3-{[5-(2-fluoroethoxy)pyridin-3-yl]methoxy}-5′-(pyrazin-2-yl)tetrahydro-3′H-spiro[cyclobutane-1,2′-pyrrolo[2,1-b][1,3]oxazol]-3′-one]
EC50: 0.126 µM

N#CC1(c2ccc(COC3CC4(C3)OC3CC[C@@H](c5cnccn5)N3C4=O)cn2)CCC1 (stereo partly drawn) [Example 18.28, 1-[5-({[(5′S)-3′-oxo-5′-(pyrazin-2-yl)tetrahydro-3′H-spiro[cyclobutane-1,2′-pyrrolo[2,1-b][1,3]oxazol]-3-yl]oxy}methyl)pyridin-2-yl]cyclobutane-1-carbonitrile]
EC50: 0.174 µM

N#CC1(c2ccc(COC3CC4(C3)OC3CC[C@@H](c5cnccn5)N3C4=O)c(Cl)c2)CC1 (stereo partly drawn) [Example 18.29, 1-[3-chloro-4-({[(5′S)-3′-oxo-5′-(pyrazin-2-yl)tetrahydro-3′H-spiro[cyclobutane-1,2′-pyrrolo[2,1-b][1,3]oxazol]-3-yl]oxy}methyl)phenyl]cyclopropane-1-carbonitrile]
EC50: 0.012 µM

O=C1N2C(CC[C@H]2c2cnccn2)OC12CC(OCc1ccc(-c3ccon3)cc1)C2 (stereo partly drawn) [Example 18.30, (5′S)-3-{[4-(1,2-oxazol-3-yl)phenyl]methoxy}-5′-(pyrazin-2-yl)tetrahydro-3′H-spiro[cyclobutane-1,2′-pyrrolo[2,1-b][1,3]oxazol]-3′-one]
EC50: 0.045 µM

O=C1N2C(CC[C@H]2c2cnccn2)OC12CC(OCc1ccnc3ccnn13)C2 (stereo partly drawn) [Example 18.31, (5′S)-5′-(pyrazin-2-yl)-3-[(pyrazolo[1,5-a]pyrimidin-7-yl)methoxy]tetrahydro-3′H-spiro[cyclobutane-1,2′-pyrrolo[2,1-b][1,3]oxazol]-3′-one]
EC50: 0.428 µM

COc1ccc2cc(COC3CC4(C3)OC3CC[C@@H](c5cnccn5)N3C4=O)ncc2n1 (stereo partly drawn) [Example 18.32, (5′S)-3-[(2-methoxy-1,7-naphthyridin-6-yl)methoxy]-5′-(pyrazin-2-yl)tetrahydro-3′H-spiro[cyclobutane-1,2′-pyrrolo[2,1-b][1,3]oxazol]-3′-one]
EC50: 0.143 µM

O=C1N2C(CC[C@H]2c2cnccn2)OC12CC(OCc1cc(Cl)ccc1-c1cnco1)C2 (stereo partly drawn) [Example 18.33, (5′S)-3-{[5-chloro-2-(1,3-oxazol-5-yl)phenyl]methoxy}-5′-(pyrazin-2-yl)tetrahydro-3′H-spiro[cyclobutane-1,2′-pyrrolo[2,1-b][1,3]oxazol]-3′-one]
EC50: 0.043 µM

COc1cc(COC2CC3(C2)OC2CC[C@@H](c4cnccn4)N2C3=O)cc2nccn12 (stereo partly drawn) [Example 18.34, (5′S)-3-[(5-methoxyimidazo[1,2-a]pyridin-7-yl)methoxy]-5′-(pyrazin-2-yl)tetrahydro-3′H-spiro[cyclobutane-1,2′-pyrrolo[2,1-b][1,3]oxazol]-3′-one]
EC50: 0.231 µM

O=C1N2C(CC[C@H]2c2cnccn2)OC12CC(OCc1ccc(N3CCOCC3)nc1)C2 (stereo partly drawn) [Example 18.35, (5′S)-3-{[6-(morpholin-4-yl)pyridin-3-yl]methoxy}-5′-(pyrazin-2-yl)tetrahydro-3′H-spiro[cyclobutane-1,2′-pyrrolo[2,1-b][1,3]oxazol]-3′-one]
EC50: 0.014 µM

O=C1N2C(CC[C@H]2c2cnccn2)OC12CC(OCc1cccc3nccn13)C2 (stereo partly drawn) [Example 18.36, (5′S)-3-[(imidazo[1,2-a]pyridin-5-yl)methoxy]-5′-(pyrazin-2-yl)tetrahydro-3′H-spiro[cyclobutane-1,2′-pyrrolo[2,1-b][1,3]oxazol]-3′-one]
EC50: 0.028 µM

O=C1N2C(CC[C@H]2c2cnccn2)OC12CC(OCc1ccc3cnccc3c1)C2 (stereo partly drawn) [Example 18.37, (5′S)-3-[(isoquinolin-6-yl)methoxy]-5′-(pyrazin-2-yl)tetrahydro-3′H-spiro[cyclobutane-1,2′-pyrrolo[2,1-b][1,3]oxazol]-3′-one]
EC50: 0.015 µM

COc1ccc(COC2CC3(C2)OC2CC[C@@H](c4cnccn4)N2C3=O)cc1CC#N (stereo partly drawn) [Example 18.38, [2-methoxy-5-({[(5′S)-3′-oxo-5′-(pyrazin-2-yl)tetrahydro-3′H-spiro[cyclobutane-1,2′-pyrrolo[2,1-b][1,3]oxazol]-3-yl]oxy}methyl)phenyl]acetonitrile]
EC50: 0.012 µM

O=C1N2C(CC[C@H]2c2cnccn2)OC12CC(OCc1cc(-n3ccnc3)ccn1)C2 (stereo partly drawn) [Example 18.39]
EC50: 0.301 µM

N#Cc1ccc(OC2CCC2)cc1COC1CC2(C1)OC1CC[C@@H](c3cnccn3)N1C2=O (stereo partly drawn) [Example 18.40, 4-(cyclobutyloxy)-2-({[(5′S)-3′-oxo-5′-(pyrazin-2-yl)tetrahydro-3′H-spiro[cyclobutane-1,2′-pyrrolo[2,1-b][1,3]oxazol]-3-yl]oxy}methyl)benzonitrile]
EC50: 0.119 µM

COc1ccc2cc(COC3CC4(C3)OC3CC[C@@H](c5cnccn5)N3C4=O)cc(C)c2n1 (stereo partly drawn) [Example 18.41, (5′S)-3-[(2-methoxy-8-methylquinolin-6-yl)methoxy]-5′-(pyrazin-2-yl)tetrahydro-3′H-spiro[cyclobutane-1,2′-pyrrolo[2,1-b][1,3]oxazol]-3′-one]
EC50: 0.053 µM

O=C1N2C(CC[C@H]2c2cnccn2)OC12CC(OCc1cnc3c(c1)CCCC3)C2 (stereo partly drawn) [Example 18.42, (5′S)-5′-(pyrazin-2-yl)-3-[(5,6,7,8-tetrahydroquinolin-3-yl)methoxy]tetrahydro-3′H-spiro[cyclobutane-1,2′-pyrrolo[2,1-b][1,3]oxazol]-3′-one]
EC50: 0.11 µM

O=C1N2C(CC[C@H]2c2cnccn2)OC12CC(OCc1cc3ncccc3s1)C2 (stereo partly drawn) [Example 18.43, (5′S)-5′-(pyrazin-2-yl)-3-[(thieno[3,2-b]pyridin-2-yl)methoxy]tetrahydro-3′H-spiro[cyclobutane-1,2′-pyrrolo[2,1-b][1,3]oxazol]-3′-one]
EC50: 0.006 µM

O=C1N2C(CC[C@H]2c2cnccn2)OC12CC(OCc1ccc(OCCF)nn1)C2 (stereo partly drawn) [Example 18.44, (5′S)-3-{[6-(2-fluoroethoxy)pyridazin-3-yl]methoxy}-5′-(pyrazin-2-yl)tetrahydro-3′H-spiro[cyclobutane-1,2′-pyrrolo[2,1-b][1,3]oxazol]-3′-one]
EC50: 0.241 µM

N#Cc1ccncc1COC1CC2(C1)OC1CC[C@@H](c3cnccn3)N1C2=O (stereo partly drawn) [Example 18.45, 3-({[(5′S)-3′-oxo-5′-(pyrazin-2-yl)tetrahydro-3′H-spiro[cyclobutane-1,2′-pyrrolo[2,1-b][1,3]oxazol]-3-yl]oxy}methyl)pyridine-4-carbonitrile]
EC50: 0.159 µM

O=C1N2C(CC[C@H]2c2cnccn2)OC12CC(OCc1cnc3nccn3c1)C2 (stereo partly drawn) [Example 18.46, (5′S)-3-[(imidazo[1,2-a]pyrimidin-6-yl)methoxy]-5′-(pyrazin-2-yl)tetrahydro-3′H-spiro[cyclobutane-1,2′-pyrrolo[2,1-b][1,3]oxazol]-3′-one]
EC50: 0.128 µM
